The values below are quoted from earlier work in PMC10608500 (Marine Drugs, 2023).

What is called IC50 is the point on the concentration scale where inhibition reaches its midpoint.

Read-outs that look alike come from different tables or passages of the source.

Data set [1] concerns CCRF-CEM human T lymphoblast cells. Details: method as in PMID 34986303. Particulars: read-out: IC50 against CCRF-CEM cells.
The subject of data set [2] is U937 human histiocytic lymphoma cells. Details: method as in PMID 34986303. Particulars: read-out: IC50 against U937 cells.
The conditions of data set [3]: Table 1.
[4] abbreviates: from Oscillatoria sp., ref Li, T et al. 20.
[5] abbreviates: from Oscillatoria agardhii, ref Murakami, M et al. 21.

Consider amantamide A, for which the IC50 in data set [1] was 8.3 µM; in data set [2], 6.1 µM. The Activities entry in data set [3] (setting [4]) is “CXCR7 agonist, cytotoxic”. Turning to amantamide B, the results for the IC50 in data set [1] and in data set [2] were 5.6 µM and 7.3 µM, respectively. Also, the Activities entry in data set [3] (setting [4]) is “CXCR7 agonist, cytotoxic”. heptavalinamide A: the Activities result in data set [3] (from Symploca sp., ref Suo, R et. al. 19) was “cytotoxic”. As for prenylagaramide A, in data set [3] (setting [5]), the Activities result is “no biological activity”. As for prenylagaramide B, in data set [3] (setting [5]), the Activities entry was “no biological activity”. For sepiatocin, the Activities result in data set [3] (from Sepia officinalis, ref Henry, J et al. 22) is reported as “muscle contractile activity modulator (sepiatocin)”.
